Results published in the NIST ThermoML archive (doi:10.1016/j.fluid.2007.01.043).
Numbers after ± are expanded uncertainties.

Assay: cn = amount concentration of the nth substance listed, in mol/dm3
Conditions: 308 K, Liquid; for mass density: 101 kPa; for viscosity: 101.3 kPa

SMILES | mass density (c1 = 0.06) [kg/m3] | mass density (c1 = 0.1) [kg/m3] | viscosity (c1 = 0.06) [mPa·s] | viscosity (c1 = 0.1) [mPa·s]
O=[N+]([O-])[O-].O=[N+]([O-])[O-].[Cu+2] [copper dinitrate] + O | 1002.3 ± 0.8 | 1008.6 ± 0.8 | 0.7347 ± 0.019 | 0.7487 ± 0.02
[Cl][Ni][Cl] [nickel chloride (NiCl2)] + O | 994.09 ± 0.7 | 1004 ± 0.7 | 0.7261 ± 0.019 | 0.7469 ± 0.019
